Data reported in article PMC5698592 (British Journal of Clinical Pharmacology, 2017).

How the values were obtained:
[1] = Phase I single-dose pharmacokinetics, plasma tramadol, M1 and celecoxib; assay type: in vivo, human; conditions: for AUC(0-inf): human, plasma, po, 100 mg
[2] = Phase I safety assessment; assay type: in vivo, human; conditions: fasted, healthy subjects; for Number of subjects who reported AEs / Number of subjects with AEs considered to be treatment‐related / Subjects who reported AEs / Subjects with AEs considered to be treatment‐related: after single oral dose of each treatment; for Abdominal pain, number of events / Abdominal pain, number of subjects / Dizziness, number of events / Dizziness, number of subjects / Dysphonia, number of events / Dysphonia, number of subjects / Euphoric mood, number of events / Euphoric mood, number of subjects / Fatigue, number of events / Fatigue, number of subjects / Feeling abnormal, number of events / Feeling abnormal, number of subjects / Headache, number of events / Headache, number of subjects / Nasal congestion, number of events / Nasal congestion, number of subjects / Nausea, number of events / Nausea, number of subjects / Rash, number of events / Rash, number of subjects / Rhinitis, number of events / Rhinitis, number of subjects / Rhinorrhoea, number of events / Rhinorrhoea, number of subjects / Somnolence, number of events / Somnolence, number of subjects / Vessel puncture site pain, number of events / Vessel puncture site pain, number of subjects / Vessel puncture site reaction, number of events / Vessel puncture site reaction, number of subjects: single oral dose
[3] = cited from earlier work
[4] = tramadol administered alone in its conventional form; cited from earlier work
[5] = after use of IR tramadol; cited from earlier work
mu‐opioid receptor = conditions: compared with tramadol itself; cited from earlier work
[6] = celecoxib alone vs. tramadol + celecoxib

Compound	AUC(0-inf) [1] [ng·h/mL]	Number of subjects who reported AEs [2]	Number of subjects with AEs considered to be treatment‐related [2]	Subjects who reported AEs [2] [%]	Subjects with AEs considered to be treatment‐related [2] [%]	Abdominal pain, number of events [2]	Abdominal pain, number of subjects [2]	Dizziness, number of events [2]	Dizziness, number of subjects [2]	Dysphonia, number of events [2]	Dysphonia, number of subjects [2]	Euphoric mood, number of events [2]	Euphoric mood, number of subjects [2]	Fatigue, number of events [2]	Fatigue, number of subjects [2]	Feeling abnormal, number of events [2]	Feeling abnormal, number of subjects [2]	Headache, number of events [2]	Headache, number of subjects [2]	Nasal congestion, number of events [2]	other results
Cc1ccc(-c2cc(C(F)(F)F)nn2-c2ccc(S(N)(=O)=O)cc2)cc1 [celecoxib]	3200	12	8	34.3	22.9	0	0	1 / 1	1 / 1	1 / 1	1 / 1	0	0	0	0	0	0	1 / 1	1 / 1	1 / 1	Ratio of geometric LS means (90% CI), celecoxib AUC τ, Treatment 3 vs. Treatment 4 [1, 6]: 110.39 (105.68–115.32) %; Ratio of geometric LS means (90% CI), celecoxib AUC ∞, Treatment 3 vs. Treatment 4 [1, 6]: 103.64 (99.37–108.09) %; Ratio of geometric LS means (90% CI), celecoxib C max, Treatment 3 vs. Treatment 4 [1, 6]: 163.92 (146.56–183.35) %; Nasal congestion, number of subjects [2]: 1 / 1; Nausea, number of events [2]: 0; Nausea, number of subjects [2]: 0; Rash, number of events [2]: 1 / 1; Rash, number of subjects [2]: 1 / 1; Rhinitis, number of events [2]: 1 / 1; Rhinitis, number of subjects [2]: 1 / 1; Rhinorrhoea, number of events [2]: 1 / 1; Rhinorrhoea, number of subjects [2]: 1 / 1; Somnolence, number of events [2]: 5 / 5; Somnolence, number of subjects [2]: 5 / 5; Vessel puncture site pain, number of events [2]: 2 / 2; Vessel puncture site pain, number of subjects [2]: 2 / 2; Vessel puncture site reaction, number of events [2]: 1 / 1; Vessel puncture site reaction, number of subjects [2]: 1 / 1; time to peak plasma concentrations ([3]; after administration of commercially available formulation): 2 to 3 h; elimination half‐life ([3]; commercially available formulation): 8 to 12 h
COc1cccc(C2(O)CCCCC2CN(C)C)c1 (stereo not drawn) [tramadol]	3060	14	14	40.0	40.0	2 / 2	2 / 2	4 / 4	4 / 4	1 / 1	1 / 1	2 / 2	2 / 2	2 / 2	2 / 2	1 / 1	1 / 1	1 / 1	1 / 1	1 / 1	Nasal congestion, number of subjects [2]: 1 / 1; Nausea, number of events [2]: 6; Nausea, number of subjects [2]: 4; Rash, number of events [2]: 0; Rash, number of subjects [2]: 0; Rhinitis, number of events [2]: 0; Rhinitis, number of subjects [2]: 0; Rhinorrhoea, number of events [2]: 0; Rhinorrhoea, number of subjects [2]: 0; Somnolence, number of events [2]: 10 / 10; Somnolence, number of subjects [2]: 10 / 10; Vessel puncture site pain, number of events [2]: 0; Vessel puncture site pain, number of subjects [2]: 0; Vessel puncture site reaction, number of events [2]: 1 / 1; Vessel puncture site reaction, number of subjects [2]: 1 / 1; elimination half‐life (T ½el) [4]: 5 to 6 h; subjects affected by the most common AEs (nausea and dizziness) [5]: > 10%
(+)‐O‐desmethyl‐tramadol [M1]																					affinity for the mu‐opioid receptor (mu‐opioid receptor): much greater affinity
